Data published in ChEMBL document CHEMBL5257037, “Side Chain Cyclized Aromatic Amino Acids: Great Tools as Local Constraints in Peptide and Peptidomimetic Design” (J Med Chem, 2016).
Blank lines part the entries; values can stand above or below the molecule they belong to. *1 amine or outer side, *2 acyl side, *3 side chain or, on linkers, in order; H or OH if unused. Where a SMILES comes first, the peptide text is derived from it. [ ]: non-standard residue; d: D form. Gly(9-fluorenyl) = N[C@H](C(=O)O)C1c2ccccc2-c2ccccc21; X1 = O=C([C@@H](N[*:1])[C@H]1CCc2ccccc21)[*:2]; Tic = O=C(O)[C@@H]1Cc2ccccc2CN1

Columns and labels:
[1] = target: T1, B2 bradykinin receptor (Homo sapiens, UniProt P30411); experiment: Antagonist potency at B2 bradykinin receptor (unknown origin); conditions: read-out: pA2 (converted)
T1 sequence (P30411 whole entry): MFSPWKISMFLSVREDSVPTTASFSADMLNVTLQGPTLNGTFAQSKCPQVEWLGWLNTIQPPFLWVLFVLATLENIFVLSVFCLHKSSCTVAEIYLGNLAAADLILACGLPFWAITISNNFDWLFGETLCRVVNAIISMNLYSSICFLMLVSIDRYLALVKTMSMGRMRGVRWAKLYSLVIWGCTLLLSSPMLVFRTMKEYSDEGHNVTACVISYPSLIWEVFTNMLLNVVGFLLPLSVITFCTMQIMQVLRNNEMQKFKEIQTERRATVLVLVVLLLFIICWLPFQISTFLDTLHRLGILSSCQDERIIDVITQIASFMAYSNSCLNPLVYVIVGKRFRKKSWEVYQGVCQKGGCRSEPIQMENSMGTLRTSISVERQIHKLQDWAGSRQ

[2] = target: T1, B2 bradykinin receptor; experiment: Binding affinity to B2 bradykinin receptor (unknown origin)
[3] = target: T2, Angiotensin-converting enzyme (Homo sapiens, UniProt P12821); experiment: Binding affinity to angiotensin-converting enzyme (unknown origin) assessed as inhibition constant
[4] = target: Neprilysin (Homo sapiens, UniProt P08473); experiment: Binding affinity to neutral endopeptidase (unknown origin) assessed as inhibition constant
[5] = Inhibition of farnesyltransferase (unknown origin); set-up: species or system Homo sapiens
[6] = target: Substance-P receptor (Homo sapiens, UniProt P25103); experiment: Inhibition of [3H]SP binding to human neurokinin receptor 1 expressed in CHO cells; type: cell-based
[7] = target: T2, Angiotensin-converting enzyme; experiment: Inhibition of angiotensin-converting enzyme (unknown origin)
[8] = target: Substance-P receptor (Rattus norvegicus, UniProt P14600); experiment: Inhibition of [125I]BHSP binding to neurokinin receptor 1 in rat brain synaptosomes; type: subcellular, Synaptosome

Molecule: N=C(N)NCCC[C@@H](N)C(=O)N[C@@H](CCCNC(=N)N)C(=O)N1CCC[C@H]1C(=O)N1C[C@H](O)C[C@H]1C(=O)NCC(=O)N[C@@H](Cc1cccs1)C(=O)N[C@@H](CO)C(=O)N1Cc2ccccc2C[C@@H]1C(=O)N1Cc2ccccc2C[C@H]1C(=O)N[C@@H](CCCNC(=N)N)C(=O)O
Kb [1]: 0.794 nM
Ki ([2]; read-out: Ki): 0.38 nM

Molecule: O=C(CS)N[C@H]1Cc2ccccc2[C@H]2CCC[C@@H](C(=O)O)N2C1=O
Ki [3]: 2 nM
Ki [4]: 5 nM

Molecule: CSCC[C@H](NC(=O)[C@H]1Cc2ccccc2CN1C(=O)[C@H](C(C)C)N(C)C(=O)[C@H](CS)NC(=O)[C@@H](N)CCCCN)C(=O)O
IC50 [5]: 5 nM

Molecule: CSCC[C@H](NC(=O)[C@H](Cc1ccccc1)NC(=O)[C@@H](NC(=O)[C@H](CS)NC(C)=O)C(C)C)C(=O)O (Ac-CVFM-OH)
IC50 [5]: 250 nM

Molecule: CC[C@H](C)[C@H](NC(=O)CNC(=O)[C@@H](NC(=O)[C@H](Cc1ccccc1)NC(=O)[C@H](CCC(N)=O)NC(=O)[C@H](CCC(=O)O)NC(=O)[C@H](CCCCN)NC(=O)[C@@H]1CCCN1C(=O)[C@@H](N)CCCNC(=N)N)C1c2ccccc2-c2ccccc21)C(=O)N[C@@H](CCSC)C(=O)O (H-RPKEQF[Gly(9-fluorenyl)]GIM-OH)
IC50 [8]: 3 nM

Molecule: CC[C@H](C)[C@H](NC(=O)CNC(=O)[C@H](Cc1ccccc1)NC(=O)[C@@H]1Cc2ccccc2CN1C(=O)[C@H](CCC(N)=O)NC(=O)[C@H](CCC(=O)O)NC(=O)[C@H](CCCCN)NC(=O)[C@@H]1CCCN1C(=O)[C@@H](N)CCCNC(=N)N)C(=O)N[C@@H](CCSC)C(=O)O (H-RPKEQ[Tic]FGIM-OH)
IC50 [8]: 2400 nM

Molecule: N=C(N)NCCC[C@H](NC(=O)CN1Cc2ccccc2CC(NC(=O)[C@H](CO)NC(=O)[C@H](Cc2ccccc2)NC(=O)CNC(=O)[C@@H]2CCCN2C(=O)[C@@H]2CCCN2C(=O)[C@@H](N)CCCNC(=N)N)C1=O)C(=O)O (mixture of isomers)
Ki ([2]; read-out: pKi (converted)): 794 nM

Molecule: N=C(N)NCCCC(NC(=O)CN1CCCCC2(CCCN2C(=O)[C@H](CO)NC(=O)[C@H](Cc2ccccc2)NC(=O)CNC(=O)[C@@H]2CCCN2C(=O)[C@@H]2CCCN2C(=O)[C@@H](N)CCCNC(=N)N)C1=O)C(=O)O (mixture of isomers; 67)
Ki ([2]; read-out: pKi (converted)): 1260 nM

Molecule: N=C(N)NCCCC(NC(=O)CN1CCCCC2(CCCN2C(=O)[C@H](CO)NC(=O)[C@H](Cc2ccccc2)NC(=O)CNC(=O)[C@@H]2CCCN2C(=O)[C@@H]2CCCN2C(=O)[C@@H](N)CCCNC(=N)N)C1=O)C(=O)O (mixture of isomers; 68)
Ki ([2]; read-out: pKi (converted)): 251 nM

Molecule: O=C(O)CN1C(=O)[C@@H](N[C@@H](CCc2ccccc2)C(=O)O)CCc2ccccc21 [BENAZEPRILAT]
IC50 [7]: 1.7 nM

Molecule: CCC[C@H](N[C@@H](C)C(=O)N1[C@H](C(=O)O)C[C@@H]2CCCC[C@@H]21)C(=O)OCC [PERINDOPRIL]
IC50 [7]: 3.6 nM

Molecule: H-KCVFM-OH
IC50 [5]: 1000 nM

Continued, values first:

Ki ([2]; read-out: pKi (converted)): 2510 nM
Molecule: N=C(N)NCCC[C@H](NC(=O)CN1Cc2ccccc2C[C@@H](NC(=O)[C@H](CO)NC(=O)[C@H](Cc2ccccc2)NC(=O)CNC(=O)[C@@H]2CCCN2C(=O)[C@@H]2CCCN2C(=O)[C@@H](N)CCCNC(=N)N)C1=O)C(=O)O

IC50 [5]: 100000 nM
Molecule: CSCC[C@H](NC(=O)[C@H]1Cc2ccccc2CN1C(=O)[C@@H](NC(=O)[C@H](CS)NC(=O)[C@@H](N)CCCCN)C(C)C)C(=O)O

Ki [6]: 390 nM
Molecule: CC(=O)N1Cc2[nH]c3ccccc3c2C[C@H]1C(=O)OCc1cc(C(F)(F)F)cc(C(F)(F)F)c1

IC50 [5]: 270 nM
Molecule: CSCC[C@H](NC(=O)C1CC=CCN1C(=O)[C@@H](NC[C@@H](N)CS)C(C)C)C(=O)O (some centres undefined)

IC50 [7]: 5.8 nM
Molecule: C[C@H](N[C@@H](CCc1ccccc1)C(=O)O)C(=O)N1CCc2ccccc2[C@H]1C(=O)O

IC50 [5]: 11 nM
Molecule: CSCC[C@H](NC(=O)[C@@H]1Cc2ccccc2CN1C(=O)[C@@H](NC(=O)[C@H](CS)NC(C)=O)C(C)C)C(=O)O (Ac-CV[Tic]M-OH)

IC50 [5]: 1 nM
Molecule: CSCC[C@H](NC(=O)[C@@H]1Cc2ccccc2CN1C(=O)[C@@H](NC(=O)[C@@H](N)CS)C(C)C)C(=O)O (H-CV[Tic]M-OH)

IC50 [8]: 1200 nM
Molecule: CC[C@H](C)[C@H](NC(=O)CNC(=O)[C@@H]1Cc2ccccc2CN1C(=O)[C@H](Cc1ccccc1)NC(=O)[C@H](CCC(N)=O)NC(=O)[C@H](CCC(=O)O)NC(=O)[C@H](CCCCN)NC(=O)[C@@H]1CCCN1C(=O)[C@@H](N)CCCNC(=N)N)C(=O)N[C@@H](CCSC)C(=O)O (H-RPKEQF[Tic]GIM-OH)

IC50 [8]: 3 nM
Molecule: CC[C@H](C)[C@H](NC(=O)CNC(=O)[C@H](Cc1ccccc1)NC(=O)[C@@H](NC(=O)[C@H](CCC(N)=O)NC(=O)[C@H](CCC(=O)O)NC(=O)[C@H](CCCCN)NC(=O)[C@@H]1CCCN1C(=O)[C@@H](N)CCCNC(=N)N)[C@H]1CCc2ccccc21)C(=O)N[C@@H](CCSC)C(=O)O (H-RPKEQ[X1]FGIM-OH)

IC50 [8]: 0.64 nM
Molecule: H-RPKEQFFGIM-OH
